Reference: US20240218011A1, “GLUCOCORTICOID RECEPTOR AGONISTS AND CONJUGATES THEREOF” (FireFly Bio, Inc., priority 2022, published 2024)

Assays:
[1] = target: T1, Glucocorticoid Receptor (GR) (Homo sapiens, UniProt P04150); experiment: GR reporter assay (GR-GAL4 Reporter (Luc)-HEK293 cells, Steady-Glo luciferase); assay type: cell-based; conditions: 24 hours, read-out: GR reporter agonist
T1 construct: A GAL4-responsive firefly luciferase reporter is the read-out; Some cells also express CD40, which is irrelevant for the free small molecules
T1 sequence (P04150 524-777 limits assumed): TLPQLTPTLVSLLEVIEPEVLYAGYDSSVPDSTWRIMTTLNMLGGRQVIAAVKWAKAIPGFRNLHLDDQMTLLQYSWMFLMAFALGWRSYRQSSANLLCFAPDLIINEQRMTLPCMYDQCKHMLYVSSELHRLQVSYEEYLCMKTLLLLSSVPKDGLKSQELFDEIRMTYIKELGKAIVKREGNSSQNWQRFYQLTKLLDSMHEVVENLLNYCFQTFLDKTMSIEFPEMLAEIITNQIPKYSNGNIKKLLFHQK
Description: Certain GR agonist compounds of the present disclosure were tested in a GR reporter assay. Briefly, CD40 expressing GR-GAL4 Reporter (Luc)-HEK293 or parental GR-GAL4 reporter (Luc)-HEK293 cells were harvested from culture and seeded wells at a density of ˜30,000 cells per well in 45 μl of assay medium. Cells were incubated at 37° C. in a CO2 incubator overnight. […] The plates were incubated at 37° C. in a CO2 incubator for 24 hours. The Steady-Glo Luciferase Assay System (Promega), following manufacturer's instructions, was used to detect luminescence, which was measured using a luminometer.
The average background luminescence (cell-free control wells) was substracted from the luminescence reading of all wells. […] The EC50 value for each conjugate was determined in both CD40 expressing and parental GR-GAL4 Reporter (Luc)-HEK293 cells and the ratio was used to as a measure of linker stability and non-specific uptake.

[2] = tested on: Human monocyte derived dendritic cells and allogeneic CD3+ T cells; experiment: Allo mixed lymphocyte assay (monocyte derived dendritic cells + allogeneic CD3+ T cells), cytokines by MSD ELISA; assay type: cell-based; conditions: 100 nM, 48 hrs co-culture, mean of duplicates
Description: Human monocyte derived dendritic cells were derived in vitro from healthy human donor CD 14^+ monocytes, isolated from blood by standard cell marker negative selection with antibody coated beads, by culture of the monocytes under a standard dendritic cell generation protocol with added GM-CSF and IL4 for 6 days. […] Conjugates, protein, and small molecule controls were added at 100 nM immediately after. After 48 hrs of co-culture supernatants were collected from wells and cytokine levels for T cell derived cytokines (IL2, IFNγ) and dendritic cell derived cytokines (IL6, IL 12p40) were measured by MSD multiplex ELISA and plate reader per manufacturer's instructions (Meso Scale Diagnostics LLC).

[3] = tested on: antigen-driven (FITC) ear inflammation; experiment: FITC antigen-driven ear inflammation in mice (ear swelling); assay type: in vivo, Balb/c mice; conditions: 24 hours after FITC rechallenge, ip 20 mpk conjugate or antibody, 10 mpk dexamethasone
Description: Female Balb/c mice aged 6-7 weeks (Envigo Labs) were used. On day 0 ear thickness was measured in all mice using microcalipers. On day 0 mice were then sensitized to the antigen fluorescsein isothiocyanate (FITC) on a shaved flank by application of 50 microliters of 1% FITC in a formulation of 50% acetone:50% dibutyl phthalate. […] After 24 hours ear thickness was determined on the treated ear. […] Animals were bled for serum and sacrificed on day 9. […] Ear thickness and ELISA results were analyzed for differences in means with GraphPad Prism software by one-way ANOVA with Dunnett's multiple comparisons.

[4] = tested on: GR-GAL4 Reporter (Luc)-HEK293 cell line stably expressing membrane human BAFF (memBAFF); experiment: GR-GAL4 luciferase reporter assay, memBAFF reporter cell line; assay type: cell-based
Description: (§1) To determine the level of GR agonism at the end of the incubation luciferase levels were determined with the Steady-Glo Luciferase Assay System (Promega, cat #E2520 or E2550). The results were analyzed with Graphpad Prism software v9.1 (Graphpad Inc) to determine EC50.
(§2) The memBAFF and parental GR-GAL4 luciferase cell reporter cell lines were plated in 96 well plates in complete DMEM media. […] To determine the level of GR agonism found for the different treatments, at the end of the incubation firefly luciferase was measured as per manufacturer's instructions with the Steady-Glo Luciferase Assay System (Promega, cat #E2520 or E2550) and then analyzed with Graphpad Prism software (Graphpad Inc v9.1) to determine EC50.

[5] = tested on: parental GR-GAL4 Reporter (Luc)-HEK293 cell line (non-BAFF-expressing); experiment: GR-GAL4 luciferase reporter assay, parental reporter cell line (Anti-BAFF conjugates); assay type: cell-based
Description: as §1, §2

Row | Molecule | EC50 [1] [nM] | further results
1 | Cc1nn[nH]c1-c1ccc([C@@H]2O[C@@H]3C[C@H]4[C@@H]5CCC6=CC(=O)C=C[C@]6(C)[C@H]5[C@@H](O)C[C@]4(C)[C@]3(C(=O)CO)O2)cc1 [Compound 1] | 22.2 | –
2 | C[C@]12C=CC(=O)C=C1CC[C@@H]1[C@@H]2[C@@H](O)C[C@@]2(C)[C@H]1C[C@H]1O[C@@H](c3ccc(Cn4ccnn4)cc3)O[C@]12C(=O)CO [Compound 2] | 17 | –
3 | C[C@]12C=CC(=O)C=C1CC[C@@H]1[C@@H]2[C@@H](O)C[C@@]2(C)[C@H]1C[C@H]1O[C@@H](c3ccc(Cc4c[nH]nn4)cc3)O[C@]12C(=O)CO [Compound 3] | 25.1 | –
4 | Cn1nccc1[C@@H]1O[C@@H]2C[C@H]3[C@@H]4CCC5=CC(=O)C=C[C@]5(C)[C@H]4[C@@H](O)C[C@]3(C)[C@]2(C(=O)CO)O1 [Compound 4] | 21.8 | –
5 | Cn1cc([C@@H]2O[C@@H]3C[C@H]4[C@@H]5CCC6=CC(=O)C=C[C@]6(C)[C@H]5[C@@H](O)C[C@]4(C)[C@]3(C(=O)CO)O2)cn1 [Compound 5] | 49.1 | –
6 | C[C@]12C=CC(=O)C=C1CC[C@@H]1[C@@H]2[C@@H](O)C[C@@]2(C)[C@H]1C[C@H]1O[C@@H](c3ccc4c(c3)OCO4)O[C@]12C(=O)CO [Compound 6] | 25.2 | –
7 | C[C@]12C=CC(=O)C=C1CC[C@@H]1[C@@H]2[C@@H](O)C[C@@]2(C)[C@H]1C[C@H]1O[C@@H](c3ccc4c(c3)OCCO4)O[C@]12C(=O)CO [Compound 7] | 47 | –
8 | C[C@]12C=CC(=O)C=C1CC[C@H]1[C@@H]3C[C@H]4O[C@@H](c5ccccc5)O[C@@]4(C(=O)CO)[C@@]3(C)C[C@H](O)[C@@]12F [Compound 8] | 1.1 | –
9 | C[C@]12C=CC(=O)C=C1[C@@H](F)C[C@H]1[C@@H]3C[C@H]4O[C@@H](C5CCC5)O[C@@]4(C(=O)CO)[C@@]3(C)C[C@H](O)[C@@]12F [Compound 14] | 0.68 | –
10 | C[C@]12C=CC(=O)C=C1[C@@H](F)C[C@H]1[C@@H]3C[C@H]4O[C@@H](C56CC(C5)C6)O[C@@]4(C(=O)CO)[C@@]3(C)C[C@H](O)[C@@]12F [Compound 15] | 2.9 | –
11 | C[C@]12C=CC(=O)C=C1[C@@H](F)C[C@H]1[C@@H]3C[C@H]4O[C@@H](c5cccc(F)c5)O[C@@]4(C(=O)CN)[C@@]3(C)C[C@H](O)[C@@]12F [Compound 16] | 39.1 | –
12 | CCCC1O[C@@H]2C[C@H]3[C@@H]4CCC5=CC(=O)C=C[C@]5(C)[C@H]4[C@@H](O)C[C@]3(C)[C@]2(C(=O)CO)O1 (stereo partly shown) [budesonide, reference compound] | – | IFNγ % Media [2]: 1 % Media; IL2 % Media [2]: 14 % Media; IL12p40 % Media [2]: 1 % Media
13 | C[C@@H]1C[C@H]2[C@@H]3CCC4=CC(=O)C=C[C@]4(C)[C@@]3(F)[C@@H](O)C[C@]2(C)[C@@]1(O)C(=O)CO [dexamethasone, reference compound] | – | Mean Swelling (mm) [3]: 0.07 mm
14 | belimumab [Anti-BAFF (belimumab)] | – | IFNγ % Media [2]: 140 % Media; IL2 % Media [2]: 72 % Media; IL12p40 % Media [2]: 139 % Media; IL6 % Media ([2]; LLOQ = lower limit of quantitation in the MSD assay): 121 % Media
15 | belimumab [BAFF mAb (belimumab)] | – | EC50 ([4]; Table 22, 24 hour incubation, * = low confidence in EC50 due to curve fit, read-out: EC50 (nM) Mem(BAFF) line): > 500 nM; GR agonism over the complete dilution series ([4]; memBAFF line, 500 nM-[…]): no GR agonism; EC50 ([5]; Table 22, 24 hour incubation, * = low confidence in EC50 due to curve fit): > 500 nM; GR agonism over the complete dilution series ([5]; parental line, 500 nM-[…]): no GR agonism

Further lines, with some results ahead:

Row | EC50 [1] [nM] | Molecule | further results
16 | 1.2 | C[C@]12C=CC(=O)C=C1[C@@H](F)C[C@H]1[C@@H]3C[C@H]4O[C@@H](c5ccc(Oc6ccccc6)c(F)c5)O[C@@]4(C(=O)CO)[C@@]3(C)C[C@H](O)[C@@]12F [Compound 18] | –
17 | 23.8 | C[C@]12C=CC(=O)C=C1[C@@H](F)C[C@H]1[C@@H]3C[C@H]4O[C@@H](c5ccc(OCC(F)(F)CN)c(F)c5)O[C@@]4(C(=O)CO)[C@@]3(C)C[C@H](O)[C@@]12F [Compound 19] | –
18 | 0.46 | C[C@]12C=CC(=O)C=C1[C@@H](F)C[C@H]1[C@@H]3C[C@H]4O[C@@H](c5ccc(F)s5)O[C@@]4(C(=O)CO)[C@@]3(C)C[C@H](O)[C@@]12F [Compound 27] | –
19 | 0.44 | C[C@]12C=CC(=O)C=C1[C@@H](F)C[C@H]1[C@@H]3C[C@H]4O[C@@H](c5sccc5F)O[C@@]4(C(=O)CO)[C@@]3(C)C[C@H](O)[C@@]12F [Compound 30a] | –
20 | 14.3 | C[C@]12C=CC(=O)C=C1[C@@H](F)C[C@H]1[C@@H]3C[C@H]4O[C@@H](C#Cc5ccccc5)O[C@@]4(C(=O)CO)[C@@]3(C)C[C@H](O)[C@@]12F [Compound 40] | –
21 | 9 | C[C@]12C=CC(=O)C=C1[C@@H](F)C[C@H]1[C@@H]3C[C@H]4O[C@@H](C5CC6(CCOCC6)C5)O[C@@]4(C(=O)CO)[C@@]3(C)C[C@H](O)[C@@]12F [Compound 42] | –
22 | 3.7 | C[C@]12C=CC(=O)C=C1[C@@H](F)C[C@H]1[C@@H]3C[C@H]4O[C@@H](c5cc6c(s5)CCCC6)O[C@@]4(C(=O)CO)[C@@]3(C)C[C@H](O)[C@@]12F [Compound 43] | –
23 | 23 | C[C@@H](c1ccccc1)[C@@H]1O[C@@H]2C[C@H]3[C@@H]4C[C@H](F)C5=CC(=O)C=C[C@]5(C)[C@@]4(F)[C@@H](O)C[C@]3(C)[C@]2(C(=O)CO)O1 [Compound 50] | –
24 | 1.2 | C[C@]12C=CC(=O)C=C1CC[C@H]1[C@@H]3C[C@H]4O[C@@H](C5CCC5)O[C@@]4(C(=O)CO)[C@@]3(C)C[C@H](O)[C@@]12F [Compound 51] | –
25 | 0.57 | C[C@]12C=CC(=O)C=C1CC[C@H]1[C@@H]3C[C@H]4O[C@@H](c5sccc5F)O[C@@]4(C(=O)CO)[C@@]3(C)C[C@H](O)[C@@]12F [Compound 52a] | –
26 | 0.89 | C[C@]12C=CC(=O)C=C1CC[C@@H]1[C@@H]2[C@@H](O)C[C@@]2(C)[C@H]1C[C@H]1O[C@@H](c3sccc3F)O[C@]12C(=O)CO [Compound 53a] | –
27 | 32.6 | C[C@]12C=CC(=O)C=C1CC[C@@H]1[C@@H]2[C@@H](O)C[C@@]2(C)[C@H]1C[C@H]1O[C@@H](/C=C/C3CC3)O[C@]12C(=O)CO [Compound 58] | –
28 | 172 | C[C@]12C=CC(=O)C=C1CC[C@@H]1[C@@H]2[C@@H](O)C[C@@]2(C)[C@H]1C[C@H]1O[C@@H](/C=C/c3cccc(N)c3)O[C@]12C(=O)CO [Compound 67] | –
29 | 4.9 | C[C@]12C=CC(=O)C=C1CC[C@@H]1[C@@H]2[C@@H](O)C[C@@]2(C)[C@H]1C[C@H]1O[C@@H](C3CCC3)O[C@]12C(=O)CO [Compound 85] | –
